Where two headings read alike, the source gives them in different places.
Legend:
[1] = tested on: cachectic patients with non-small cell lung cancer; conditions: cited from earlier work
[2] = tested on: patients with advanced cancer; assay: FAACT Anorexia/Cachexia subscale, Example 1 study; format: in vivo, human; conditions: change from baseline, 100 mg oral daily + physical activity + nutritional counseling
Experimental: (§1) In this single arm study, 38 patients were intended for treatment with anamorelin for 6 weeks with an optional extension phase of 6 more weeks based on tolerability and safety and patient willingness. Patients received anamorelin 100 mg tablets and physical activity for 6 weeks for the intervention phase. Patients took 1 tablet orally while fasting (at least 1 hour before a meal).
(§2) Secondary objectives of the study were to examine the effects of anamorelin and standardized physical activity and nutritional counseling on Health-related quality of life and patient reported outcomes as measured by The Multidimensional Fatigue Symptom Inventory-Short Form[MFSI-SF], PROMIS-Fatigue, Hospital Anxiety Depression Scale (HADS), Edmonton Symptom Assessment Scale (ESAS), Functional Assessment of Cancer Therapy (FACT-G), and its Functional Assessment of Anorexia/Cachexia Treatment (FAACT) subscale in these patients.
The FAACT-Anorexia/Cachexia subscale is a 12-item symptom-specific subscale designed to measure patients' additional concerns about their anorexia/cachexia during the previous 7 days. The FAACT has internal consistency and a reliability coefficient (Cronbach's alpha) of 0.88 for the 12 components (Ribaudo, Cella et al. 2000). Patients rate the intensity of anorexia/cachexia and its related symptoms on a 0-4 scale like that used in the FACIT-F.

[3] = tested on: IGF-1; assay: IGF-1 level, Example 1 study; format: in vivo, human; conditions: Day 43, 28 evaluable patients, 100 mg oral daily + physical activity + nutritional counseling
Experimental: as §1

[4] = tested on: Patients With Non—Small Cell Lung Cancer and Cachexia; conditions: study by Katakami and Uchino et al. 2018; cited from earlier work
[5] = Weight and body composition (InBody), Example 1 study; format: in vivo, human; conditions: Day 43, 28 evaluable patients, 100 mg oral daily + physical activity + nutritional counseling
Experimental: as §1
Exploratory objectives of the study were to explore the effects of anamorelin and standardized physical activity and nutritional counseling on muscle function (as measured by the 30 second chair stand test, 6 minute walk test, day time activity (accelerometer), body composition (as measured by INBODY), and Resting Energy Expenditure (measured by indirect calorimetry)
Body Composition: All patients were assessed for lean body mass, skeletal muscle mass, extracellular water/total body water body, fat mass, body fat mass, and whole body phase angle evaluation (using the InBody body composition scale) (Dalal, Hui et al. 2012, Del Fabbro, Parsons et al. 2012, Yennurajalingam, Willey et al. 2012, Hui, Bansal et al. 2014). Resting energy expenditure was assessed at baseline and Day 43±3 days, and at the end of 6 weeks of the extension phase.

[6] = tested on: patients with advanced cancer; assay: PROMIS-Fatigue, Example 1 study; format: in vivo, human; conditions: change from baseline, 100 mg oral daily + physical activity + nutritional counseling
Experimental: as §1, §2
PROMIS measures key symptoms and health concepts applicable to advanced cancer, enabling efficient and interpretable clinical trial research and clinical practice application of patient-reported outcomes (PROs) (Rothrock, Hays et al. 2010, Yost, Eton et al. 2011).

[7] = tested on: patients with advanced cancer; assay: FACT-G, Example 1 study; format: in vivo, human; conditions: change from baseline, 100 mg oral daily + physical activity + nutritional counseling
Experimental: as §1, §2
The FACT-G is a 27-item compilation of general questions divided into four primary domains: Physical Well-Being, Social/Family Well-Being, Emotional Well-Being, and Functional Well-Being. It is appropriate for use in patients with any form of cancer, and extensions of it have been used and validated in other chronic illness conditions as well (Cella, Tulsky et al. 1993, Webster, Cella et al. 2003). The FACT-G is the first 2 pages of FACIT-F.

[8] = tested on: patients with advanced cancer; assay: Multidimensional Fatigue Symptom Inventory-Short Form (MFSI-SF), Example 1 study; format: in vivo, human; conditions: change from baseline, 100 mg oral daily + physical activity + nutritional counseling
Experimental: as §1, §2
MFSI-SF consists of 30 items designed to assess the multidimensional nature of fatigue(Stein, Jacobsen et al. 2004). Ratings are summed to obtain scores for 5 subscales (general fatigue, physical fatigue, emotional fatigue, mental fatigue, and vigor).

[9] = tested on: patients with advanced cancer; assay: Adverse events, Example 1 study; format: in vivo, human; conditions: 100 mg oral daily, 6 weeks with optional 6 week extension
Experimental: as §1

[10] = tested on: patients with advanced cancer; assay: Global Symptom Evaluation, Example 1 study; format: in vivo, human; conditions: time point not clearly stated; 100 mg oral daily + physical activity + nutritional counseling
Experimental: as §1

[11] = tested on: patients with advanced cancer; assay: Edmonton Symptom Assessment Scale (ESAS), Example 1 study; format: in vivo, human; conditions: change from baseline, 100 mg oral daily + physical activity + nutritional counseling
Experimental: as §1, §2
The ESAS measures 10 common symptoms in the past 24 hours (pain, fatigue, nausea, depression, anxiety, drowsiness, shortness of breath, appetite, sleep, and feeling of well-being); This questionnaire has been found valid and reliable in cancer populations (Bruera, Kuehn et al. 1991).

[12] = ROMANA 1 and ROMANA 2, both studies

CN(C)N(C)C(=O)[C@@]1(Cc2ccccc2)CCCN(C(=O)[C@@H](Cc2c[nH]c3ccccc23)NC(=O)C(C)(C)N)C1 [anamorelin]
Effect size for improvement in CRF ([1]; ROMANA 1): 0.16 | Effect on fatigue using the FACIT-F [1, 12]: unable to detect a significant effect | Effect on strength measured by handgrip strength [1, 12]: unable to detect a significant effect | Effect size for improvement in CRF ([1]; ROMANA 2): 0.008 | Treat fatigue and improve handgrip strength, pooled post-hoc analysis ([1]; higher BMIs): ineffective | Treat fatigue and improve handgrip strength, pooled post-hoc analysis ([1]; patients with BMI less than 20 kg/m^2): effective | FAACT-A/CS Total, change, Mean (±SD) ([2]; Day 15 (N = 28)): 1.70 (±4.89), | FAACT-A/CS Total, change, Mean (±SD) ([2]; Day 29 (N = 28)): 4.53 (±5.54), | FAACT-A/CS Total, change, Mean (±SD) ([2]; Day 86 (N = 8)): −5.86 (±3.72), | IGF-1 change from baseline, mean (SD) [3]: 36.50 (±48.76) | Effect size for improvement in CRF [4]: 0.057 | Lean Body Mass improvement from baseline, mean (SD) [5]: 1.54 (±1.85) | Weight improvement from baseline, mean (SD) [5]: 1.81 (±2.63) kg | PROMIS-Fatigue, change, Mean (±SD) ([6]; Day 15 (N = 28)): −2.74 (±6.12), | PROMIS-Fatigue, change, Mean (±SD) ([6]; Day 29 (N = 28)): −3.64 (±8.22), | PROMIS-Fatigue, change, Mean (±SD) ([6]; Day 86 (N = 8)): −6.36 (±6.32), | FACT-G Total, change, Mean (±SD) ([7]; Day 15 (N = 28)): 0.59 (±9.17), | FACT-G Total, change, Mean (±SD) ([7]; Day 29 (N = 28)): 1.31 (±8.97), | FACT-G Total, change, Mean (±SD) ([7]; Day 43 (N = 28)): −1.10 (±10.71), | FACT-G Total, change, Mean (±SD) ([7]; Day 86 (N = 8)): 4.54 (±7.65), | MFSI-SF Emotional fatigue, change, Mean (±SD) ([8]; Day 15 (N = 28)): −0.43 (±2.20), | MFSI-SF General fatigue, change, Mean (±SD) ([8]; Day 15 (N = 28)): −2.25 (±4.53), | MFSI-SF Mental fatigue, change, Mean (±SD) ([8]; Day 15 (N = 28)): −0.93 (±2.57), | MFSI-SF Physical fatigue, change, Mean (±SD) ([8]; Day 15 (N = 28)): −0.71 (±3.69), | MFSI-SF Total, change, Mean (±SD) ([8]; Day 15 (N = 28)): −4.79 (±9.59), | MFSI-SF Vigor, change, Mean (±SD) ([8]; Day 15 (N = 28)): 0.46 (±2.89), | MFSI-SF Emotional fatigue, change, Mean (±SD) ([8]; Day 29 (N = 28)): 0.14 (±3.15), | MFSI-SF General fatigue, change, Mean (±SD) ([8]; Day 29 (N = 28)): −4.18 (±5.74), | MFSI-SF Mental fatigue, change, Mean (±SD) ([8]; Day 29 (N = 28)): −1.39 (±2.90), | MFSI-SF Physical fatigue, change, Mean (±SD) ([8]; Day 29 (N = 28)): −0.50 (±4.43), | MFSI-SF Total, change, Mean (±SD) ([8]; Day 29 (N = 28)): −6.32 (±12.41), | MFSI-SF Vigor, change, Mean (±SD) ([8]; Day 29 (N = 28)): 0.39 (±3.46), | MFSI-SF Emotional fatigue, change, Mean (±SD) ([8]; Day 43 (N = 28)): 1.04 (±4.36), | MFSI-SF Mental fatigue, change, Mean (±SD) ([8]; Day 43 (N = 28)): −0.36 (±4.12), | MFSI-SF Physical fatigue, change, Mean (±SD) ([8]; Day 43 (N = 28)): −0.39 (±5.03), | MFSI-SF Total, change, Mean (±SD) ([8]; Day 43 (N = 28)): −2.07 (±17.59), | MFSI-SF Vigor, change, Mean (±SD) ([8]; Day 43 (N = 28)): −1.11 (±5.28), | MFSI-SF Emotional fatigue, change, Mean (±SD) ([8]; Day 86 (N = 8)): −0.88 (±2.42), | MFSI-SF General fatigue, change, Mean (±SD) ([8]; Day 86 (N = 8)): −4.00 (±6.28), | MFSI-SF Mental fatigue, change, Mean (±SD) ([8]; Day 86 (N = 8)): −2.25 (±3.62), | MFSI-SF Physical fatigue, change, Mean (±SD) ([8]; Day 86 (N = 8)): −1.88 (±3.98), | MFSI-SF Total, change, Mean (±SD) ([8]; Day 86 (N = 8)): −11.75 (±14.22), | MFSI-SF Vigor, change, Mean (±SD) ([8]; Day 86 (N = 8)): 2.75 (±3.01), | Severe (≥grade 3) adverse events related to the study drug [9]: No severe (≥grade 3) adverse events | Global Symptom Evaluation: About the same N (%) [10]: 9 (36%) | Global Symptom Evaluation: Better N (%) [10]: 13 (52%) | Global Symptom Evaluation: Worse N (%) [10]: 3 (12%) | ESAS Appetite, change, Mean (±SD) ([11]; Day 15 (N = 28)): −0.43 (±3.06), | ESAS-Fatigue, change, Mean (±SD) ([11]; Day 15 (N = 28)): −0.68 (±2.87), | ESAS Appetite, change, Mean (±SD) ([11]; Day 29 (N = 28)): −1.04 (±3.19), | ESAS-Fatigue, change, Mean (±SD) ([11]; Day 29 (N = 28)): −0.75 (±2.70), | ESAS Appetite, change, Mean (±SD) ([11]; Day 43 (N = 28)): −0.56 (±3.07), | ESAS-Fatigue, change, Mean (±SD) ([11]; Day 43 (N = 28)): −0.81 (±2.87), | ESAS Appetite, change, Mean (±SD) ([11]; Day 86 (N = 8)): −0.13 (±3.09), | ESAS-Fatigue, change, Mean (±SD) ([11]; Day 86 (N = 8)): −1.25 (±2.43),
